Assay: mn = molality of the nth substance listed, in mol/kg
Conditions: Liquid, Vibrating tube method

[Br-].[Li+] [lithium bromide] + CCO
Conditions | mass density [kg/m3]
348.15 K, 5002 kPa, m1 = 0.2335 | 761.71
348.15 K, 5002 kPa, m1 = 1.462 | 838.72
348.15 K, 5004 kPa, m1 = 0.9499 | 807.6
348.15 K, 5004 kPa, m1 = 2.272 | 885.02
348.15 K, 5012 kPa, m1 = 2.833 | 915.98
348.15 K, 5024 kPa, m1 = 3.368 | 943.65
348.15 K, 5412 kPa, m1 = 0.5972 | 785.83
348.15 K, 10064 kPa, m1 = 0.9499 | 812.44
348.15 K, 19957 kPa, m1 = 2.833 | 928.46
348.15 K, 19985 kPa, m1 = 0.2335 | 776.82
348.15 K, 19985 kPa, m1 = 0.9499 | 821.56
348.15 K, 20024 kPa, m1 = 1.462 | 852.51
348.15 K, 29942 kPa, m1 = 0.9499 | 830.19
348.15 K, 29985 kPa, m1 = 3.368 | 963.31
348.15 K, 39784 kPa, m1 = 0.9499 | 838.22
348.15 K, 39945 kPa, m1 = 0.5972 | 816.93
348.15 K, 39947 kPa, m1 = 0.2335 | 794.15
348.15 K, 39957 kPa, m1 = 2.833 | 943.19
348.15 K, 39978 kPa, m1 = 3.368 | 970.26
348.15 K, 40002 kPa, m1 = 1.462 | 868.51
348.15 K, 49921 kPa, m1 = 2.272 | 920.25
348.15 K, 49926 kPa, m1 = 2.833 | 949.82
348.15 K, 49927 kPa, m1 = 0.9499 | 845.97
348.15 K, 59947 kPa, m1 = 0.2335 | 809.42
348.15 K, 59956 kPa, m1 = 0.5972 | 831.96
348.15 K, 59986 kPa, m1 = 1.462 | 882.36
348.15 K, 60002 kPa, m1 = 0.9499 | 853.14
348.15 K, 60024 kPa, m1 = 3.368 | 982.97
348.15 K, 69784 kPa, m1 = 0.9499 | 859.6
348.15 K, 69784 kPa, m1 = 2.272 | 932.62
348.15 K, 70024 kPa, m1 = 2.833 | 962.07
348.15 K, 79325 kPa, m1 = 0.9499 | 865.42
348.15 K, 79924 kPa, m1 = 3.368 | 994.3
348.15 K, 79956 kPa, m1 = 1.462 | 894.65
348.15 K, 80004 kPa, m1 = 0.2335 | 822.02
348.15 K, 80021 kPa, m1 = 0.5972 | 844.82
348.15 K, 89923 kPa, m1 = 3.368 | 999.65
348.15 K, 89926 kPa, m1 = 0.2335 | 827.8
348.15 K, 89931 kPa, m1 = 2.272 | 944.08
348.15 K, 89932 kPa, m1 = 1.462 | 900.39
348.15 K, 89935 kPa, m1 = 0.9499 | 871.34
348.15 K, 89954 kPa, m1 = 2.833 | 973.13
348.15 K, 99845 kPa, m1 = 1.462 | 905.92
348.15 K, 99934 kPa, m1 = 3.368 | 1004.87
348.15 K, 99935 kPa, m1 = 0.9499 | 876.39
348.15 K, 99945 kPa, m1 = 2.272 | 949.54
348.15 K, 99957 kPa, m1 = 0.2335 | 833.35
348.15 K, 99968 kPa, m1 = 2.833 | 978.42
348.15 K, 99985 kPa, m1 = 0.5972 | 855.43
348.16 K, 10021 kPa, m1 = 2.272 | 890.16
348.16 K, 10032 kPa, m1 = 3.368 | 947.88
348.16 K, 10034 kPa, m1 = 1.462 | 843.52
348.16 K, 19902 kPa, m1 = 0.5972 | 799.98
348.16 K, 29784 kPa, m1 = 2.272 | 906.12
348.16 K, 30024 kPa, m1 = 2.833 | 936.13
348.16 K, 49923 kPa, m1 = 0.2335 | 802.07
348.16 K, 49952 kPa, m1 = 3.368 | 976.77
348.16 K, 59932 kPa, m1 = 2.272 | 926.65
348.16 K, 69784 kPa, m1 = 1.462 | 888.55
348.16 K, 70013 kPa, m1 = 0.5972 | 838.69
348.16 K, 79926 kPa, m1 = 2.833 | 967.67
348.17 K, 50201 kPa, m1 = 1.462 | 875.81
348.17 K, 69845 kPa, m1 = 0.2335 | 816.09
353.09 K, 80053 kPa, m1 = 1.462 | 891.89
353.1 K, 9980 kPa, m1 = 1.462 | 839.5
353.1 K, 19703 kPa, m1 = 1.462 | 848.5
353.1 K, 29947 kPa, m1 = 1.462 | 857.25
353.1 K, 39836 kPa, m1 = 1.462 | 865.06
353.1 K, 49993 kPa, m1 = 1.462 | 872.5
353.1 K, 60279 kPa, m1 = 1.462 | 879.53
353.1 K, 69928 kPa, m1 = 1.462 | 885.72
353.1 K, 89979 kPa, m1 = 1.462 | 897.68
353.1 K, 99915 kPa, m1 = 1.462 | 903.29
353.11 K, 5043 kPa, m1 = 1.462 | 834.64
353.13 K, 1217 kPa, m1 = 1.462 | 830.74
353.13 K, 5143 kPa, m1 = 0.5972 | 781.1
353.13 K, 10028 kPa, m1 = 2.272 | 886.04
353.13 K, 20124 kPa, m1 = 2.272 | 895.23
353.13 K, 29947 kPa, m1 = 2.272 | 902.89
353.13 K, 89945 kPa, m1 = 0.2335 | 824.73
353.13 K, 99992 kPa, m1 = 2.272 | 946.74
353.14 K, 9986 kPa, m1 = 2.833 | 916.2
353.14 K, 19985 kPa, m1 = 0.2335 | 772.17
353.14 K, 20259 kPa, m1 = 0.5972 | 796.52
353.14 K, 29993 kPa, m1 = 0.5972 | 804.77
353.14 K, 39486 kPa, m1 = 2.272 | 909.8
353.14 K, 49965 kPa, m1 = 2.833 | 946.54
353.14 K, 49994 kPa, m1 = 2.272 | 916.93
353.14 K, 60014 kPa, m1 = 2.272 | 924.01
353.14 K, 69979 kPa, m1 = 2.272 | 929.91
353.14 K, 80071 kPa, m1 = 2.272 | 936.01
353.14 K, 89925 kPa, m1 = 2.833 | 970.1
353.14 K, 89993 kPa, m1 = 2.272 | 941.4
353.15 K, 1023 kPa, m1 = 0.2335 | 752.56
353.15 K, 1302 kPa, m1 = 2.833 | 908.32
353.15 K, 1405 kPa, m1 = 0.9499 | 799.45
353.15 K, 5002 kPa, m1 = 0.2335 | 756.87
353.15 K, 5015 kPa, m1 = 2.833 | 911.75
353.15 K, 5074 kPa, m1 = 0.9499 | 803.32
353.15 K, 9985 kPa, m1 = 0.9499 | 808.32
353.15 K, 10021 kPa, m1 = 0.2335 | 762.65
353.15 K, 19924 kPa, m1 = 0.9499 | 817.86
353.15 K, 19927 kPa, m1 = 2.833 | 924.6
353.15 K, 29784 kPa, m1 = 0.9499 | 826.6
353.15 K, 29974 kPa, m1 = 0.2335 | 781.57

From the NIST ThermoML archive (doi:10.1021/je1003065)
